Measured values published in ChEMBL document CHEMBL4340549, “Design, synthesis and biological evaluation of isochroman-4-one hybrids bearing piperazine moiety as antihypertensive agent candidates” (Bioorg Med Chem, 2019).

Key:
[1] = test system: Rattus norvegicus; test: Effect on heart rate in spontaneously hypertensive rat assessed as heart rate level at 80 mg/kg, po measured after 6 hrs by tail-cuff method (reference value: 411.12 +/- 19.1 bpm); type: ADME, organism-based; settings: in vivo
[2] = biological target: T1, Alpha-1B adrenergic receptor (Rattus norvegicus, UniProt P15823); test: Antagonist activity at alpha-1b adrenergic receptor in SPF rat spleen assessed as inhibition of noradrenaline-induced contractions; type: tissue-based; settings: read-out: pA2 (converted)
T1 sequence (P15823 whole entry): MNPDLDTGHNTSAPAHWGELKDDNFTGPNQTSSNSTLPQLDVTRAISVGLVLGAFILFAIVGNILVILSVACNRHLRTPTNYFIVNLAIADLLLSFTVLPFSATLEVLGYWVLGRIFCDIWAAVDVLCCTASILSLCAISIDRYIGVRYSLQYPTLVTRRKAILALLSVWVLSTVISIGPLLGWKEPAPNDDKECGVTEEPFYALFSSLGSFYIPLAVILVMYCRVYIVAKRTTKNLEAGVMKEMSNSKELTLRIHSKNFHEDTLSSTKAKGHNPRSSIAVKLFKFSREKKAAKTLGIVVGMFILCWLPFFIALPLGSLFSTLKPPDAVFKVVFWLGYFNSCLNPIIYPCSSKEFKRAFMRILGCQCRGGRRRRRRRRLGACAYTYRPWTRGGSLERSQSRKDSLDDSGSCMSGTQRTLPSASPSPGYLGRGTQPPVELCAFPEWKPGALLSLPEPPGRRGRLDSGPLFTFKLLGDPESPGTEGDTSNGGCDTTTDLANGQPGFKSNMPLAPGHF

[3] = species: Rattus norvegicus; test: Ratio of pA2 for alpha-1b adrenergic receptor in SPF rat spleen to pA2 for alpha-1a adrenergic receptor in SPF rat prostatic vas deferens; type: tissue-based
[4] = species: Rattus norvegicus; test: Ratio of pA2 for alpha-1b adrenergic receptor in SPF rat spleen to pA2 for alpha-1D adrenergic receptor in SPF rat vas thoracic aorta
[5] = test system: Rattus norvegicus; test: Effect on heart rate in spontaneously hypertensive rat assessed as heart rate level at 80 mg/kg, po measured after 0 hrs by tail-cuff method (reference value: 413.17 +/- 10.5 bpm); type: ADME, organism-based; settings: in vivo
[6] = test system: Rattus norvegicus; test: Antihypertensive activity in spontaneously hypertensive rat assessed as mean arterial pressure at 80 mg/kg, po measured after 1 hr by tail-cuff method (reference value: 160 +/- 9.97 mmHg); type: functional
[7] = test system: Rattus norvegicus; test: Antihypertensive activity in spontaneously hypertensive rat assessed as systolic arterial pressure at 80 mg/kg, po measured after 2 hrs by tail-cuff method (reference value: 189.20 +/- 12.31 mmHg); type: functional
[8] = test system: Rattus norvegicus; test: Effect on heart rate in spontaneously hypertensive rat assessed as heart rate level at 80 mg/kg, po measured after 2 hrs by tail-cuff method (reference value: 413.2 +/- 15.2 bpm); type: ADME, organism-based; settings: in vivo
[9] = test system: Rattus norvegicus; test: Antihypertensive activity in spontaneously hypertensive rat assessed as diastolic arterial pressure at 80 mg/kg, po measured after 4 hrs by tail-cuff method (reference value: 136.12 +/- 5.3 mmHg); type: functional

Kb [2]: 35.5 nM
Ratio [3]: 6.3
Ratio [4]: 5.6
SMILES: COc1cc2c(cc1OCC(O)CN1CCN(C(=O)C3CCCO3)CC1)C(=O)C(C)OC2 (centres undefined)
Activity [1]: 411.01 bpm
Activity [5]: 415.33 bpm
Activity [6]: 152.5 mmHg
Activity [7]: 150.8 mmHg
Activity [8]: 408.14 bpm
Activity [9]: 120.54 mmHg
